Laboratory results published in patent US10975037B2 (priority 2018, dated 2021).
pIC50, pKd: −log10 of the molar value. Like-named read-outs stand apart in the source and are kept apart here. Marks after values point to notes of the source that are not given here.

Experiments:
[1] = target: human RORγt ligand binding domain (RORγt LBD) (Homo sapiens (Human), UniProt P51449); experiment: RORγt ThermoFluor® assay (thermal shift binding)
Procedure, shortened: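 Thermal shift with 0.065 mg/mL RORγt LBD and 60 μM 1,8-ANS in 100 mM Hepes pH 7.0, 10 mM NaCl, 2.5 mM GSH, 0.002% Tween-20.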

full-length human RORγt = full-length human RORγt (Homo sapiens (Human), UniProt P51449); experiment: RORγt (full-length human) reporter assay, conditions A or B, HEK293T cells; format: cell-based; conditions: for inhibition at 6 µM: read-out: RORγt (FL) Reporter Assay A or B, % inhibition @ 6 μM, 6 μM compound concentration; for inhibition at 0.67 µM: 0.67 μM compound concentration (footnote ****)
Procedure, shortened: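 Dual-luciferase read-out was taken after an overnight (16–20 h) compound exposure. Firefly data were scaled between DMSO-only and saturating reference compound, Renilla-normalized, then plotted against concentration for IC50.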

[2] = system: IL-17 production by CD4 T cells under conditions which favor Th17 differentiation; experiment: Human Th17 assay (IL-17 production by CD4 T cells); format: cell-based; conditions: read-out: Human Th17 Assay, IC50
Procedure: The human Th17 assay tests the effect of RORγt modulatory compounds on IL-17 production by CD4 T cells under conditions which favor Th17 differentiation. Total CD4^+ T cells were isolated from the peripheral blood mononuclear cells (PBMC) of healthy donors using a CD4^+ T cell isolation kit II, following the manufacturer's instructions (Miltenyi Biotec). […] 50 μL of compound at titrated concentrations in DMSO were added into each well at final DMSO concentration at 0.2%. Cells were incubated for 1 hour, then 50 μL of Th17 cell differentiation medium was added to each well. […] Cells were cultured at 37° C. and 5% CO2 for 3 days. Supernatants were collected and the accumulated IL-17 in culture was measured by using MULTI-SPOT® Cytokine Plate following manufacture's instruction (Meso Scale Discovery). The plate was read using Sector Imager 6000, and IL-17 concentration was extrapolated from the standard curve. The IC50s were determined by GraphPad.

RORγT = RORγT (Mus musculus (Mouse), UniProt P51450); conditions: mice; cited from earlier work
[3] = read-out: ThermoFluor® Assay, Kd
[4] = RORγt (FL) Reporter Assay A or B, IC50, HEK293T cells
[5] = HEK-293T, read-out: RORγt (FL) Reporter Assay A or B, % inhibition

full-length human RORγt, sequence (P51449 other isoform, or with tags, fused parts or gaps): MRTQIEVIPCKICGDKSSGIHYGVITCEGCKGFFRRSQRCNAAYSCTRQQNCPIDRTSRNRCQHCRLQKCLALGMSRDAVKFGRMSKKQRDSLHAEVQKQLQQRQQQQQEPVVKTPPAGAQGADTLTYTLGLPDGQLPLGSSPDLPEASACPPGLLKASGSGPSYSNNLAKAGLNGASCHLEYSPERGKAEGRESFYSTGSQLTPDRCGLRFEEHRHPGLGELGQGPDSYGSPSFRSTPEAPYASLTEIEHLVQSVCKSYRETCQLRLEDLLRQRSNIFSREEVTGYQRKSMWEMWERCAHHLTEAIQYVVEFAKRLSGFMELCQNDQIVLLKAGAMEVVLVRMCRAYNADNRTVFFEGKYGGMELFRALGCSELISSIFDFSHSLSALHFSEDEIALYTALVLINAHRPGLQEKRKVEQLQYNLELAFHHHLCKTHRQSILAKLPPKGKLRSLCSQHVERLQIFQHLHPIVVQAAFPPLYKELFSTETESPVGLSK
human RORγt ligand binding domain (RORγt LBD), sequence (P51449 other isoform, or with tags, fused parts or gaps): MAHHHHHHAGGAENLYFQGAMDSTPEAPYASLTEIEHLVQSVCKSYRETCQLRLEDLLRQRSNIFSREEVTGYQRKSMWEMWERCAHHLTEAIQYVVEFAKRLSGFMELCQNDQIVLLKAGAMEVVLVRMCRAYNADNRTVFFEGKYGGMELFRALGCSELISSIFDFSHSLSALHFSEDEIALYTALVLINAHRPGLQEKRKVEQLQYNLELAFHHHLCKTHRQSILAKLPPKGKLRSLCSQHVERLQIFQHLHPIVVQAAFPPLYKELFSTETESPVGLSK
RORγT, sequence (P51450 other isoform, or with tags, fused parts or gaps): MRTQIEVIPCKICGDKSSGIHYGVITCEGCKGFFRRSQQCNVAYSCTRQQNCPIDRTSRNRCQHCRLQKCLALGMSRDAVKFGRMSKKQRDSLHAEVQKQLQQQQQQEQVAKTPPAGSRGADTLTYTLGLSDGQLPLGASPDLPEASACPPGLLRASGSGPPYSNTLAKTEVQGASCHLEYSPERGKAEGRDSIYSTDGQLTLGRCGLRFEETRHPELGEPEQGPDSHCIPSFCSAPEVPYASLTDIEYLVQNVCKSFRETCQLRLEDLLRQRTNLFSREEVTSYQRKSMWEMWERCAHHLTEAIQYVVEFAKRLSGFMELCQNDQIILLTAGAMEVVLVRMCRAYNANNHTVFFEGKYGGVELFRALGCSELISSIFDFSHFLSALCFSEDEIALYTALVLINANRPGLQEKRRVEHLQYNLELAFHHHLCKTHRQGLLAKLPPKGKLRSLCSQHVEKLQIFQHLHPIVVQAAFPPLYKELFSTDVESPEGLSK

SMILES	pKd [1, 3]	pIC50 (full-length human RORγt; [4])	pIC50 ([2]; Homo sapiens, CD4+ T)	inhibition at 6 µM (full-length human RORγt; HEK-293T)	other results
CCn1nc(C(=O)NC[C@]2(O)CC[C@@H](S(C)(=O)=O)CC2)c(C)c1-c1ccc(CC(C)(C)C(F)(F)F)cc1OC(F)F [Example 143, 5-(2-(Difluoromethoxy)-4-(3,3,3-trifluoro-2,2-dimethylpropyl)phenyl)-1-ethyl-N-(((1s,4s)-1-hydroxy-4-(methylsulfonyl)cyclohexyl)methyl)-4-methyl-1H-pyrazole-3-carboxamide]	9.43	8.14	8.00	–	inhibition at […] (full-length human RORγt; HEK-293T, 0.22 μM compound concentration (footnote *******), read-out: RORγt (FL) Reporter Assay A or B, % inhibition): 101%
Cc1c(C(=O)NC[C@]2(O)CC[C@@H](S(C)(=O)=O)CC2)nn(C)c1-c1ccc(CCCC(F)(F)F)cc1OC(F)F [Example 161, 5-(2-(Difluoromethoxy)-4-(4,4,4-trifluorobutyl)phenyl)-N-(((1s,4s)-1-hydroxy-4-(methylsulfonyl)cyclohexyl)methyl)-1,4-dimethyl-1H-pyrazole-3-carboxamide]	7.49	8.11	6.70	–	inhibition at 3 µM (full-length human RORγt; HEK-293T, 3 μM compound concentration (footnote *), read-out: RORγt (FL) Reporter Assay A or B, % inhibition): 81%
CCn1nc(C(=O)NC[C@H]2CC[C@H](S(C)(=O)=O)CC2)c(Cl)c1-c1ccc(CC(C)(C)C(F)(F)F)cc1Cl [Example 165, 4-Chloro-5-(2-chloro-4-(3,3,3-trifluoro-2,2-dimethylpropyl)phenyl)-1-ethyl-N-(((1r,4r)-4-(methylsulfonyl)cyclohexyl)methyl)-1H-pyrazole-3-carboxamide]	9.35	8.10	7.89	–	inhibition at 0.07 µM (full-length human RORγt; HEK-293T, 0.07 μM compound concentration (footnote *********), read-out: RORγt (FL) Reporter Assay A or B, % inhibition): 52%
COCCn1nc(C(=O)NC[C@H]2CC[C@H](S(C)(=O)=O)CC2)c(Cl)c1-c1ccc(N[C@H](C)C(F)(F)F)cc1OC [Example 187, 4-Chloro-5-(2-methoxy-4-(((R)-1,1,1-trifluoropropan-2-yl)amino)phenyl)-1-(2-methoxyethyl)-N-(((1r,4R)-4-(methylsulfonyl)cyclohexyl)methyl)-1H-pyrazole-3-carboxamide]	–	6.96	7.27	104%	pKd ([1]; ThermoFluor® Assay, Kd): 7.74
CCn1nc(C(=O)NC[C@]2(O)CC[C@@H](S(C)(=O)=O)CC2)c(Cl)c1-c1ccc(CC(C)C(F)(F)F)cc1OC(F)(F)F (stereo partly shown) [Example 191, 4-Chloro-1-ethyl-N-(((1s,4s)-1-hydroxy-4-(methylsulfonyl)cyclohexyl)methyl)-5-(4-(3,3,3-trifluoro-2-methylpropyl)-2-(trifluoromethoxy)phenyl)-1H-pyrazole-3-carboxamide]	8.82	7.66	7.20	–	inhibition at 0.67 µM (full-length human RORγt; [5]): 69%
COc1cc(N[C@H](C)C(F)(F)F)ccc1-c1c(Cl)c(C(=O)NC[C@H]2CC[C@H](S(C)(=O)=O)CC2)nn1CCO [Example 201, 4-Chloro-1-(2-hydroxyethyl)-5-(2-methoxy-4-(((R)-1,1,1-trifluoropropan-2-yl)amino)phenyl)-N-(((r,4R)-4-(methylsulfonyl)cyclohexyl)methyl)-1H-pyrazole-3-carboxamide]	6.70	5.80	5.55	82%	–
CCn1nc(C(=O)NC[C@H]2CC[C@H](S(C)(=O)=O)CC2)c(F)c1-c1ccc(N[C@H](C)C(F)(F)F)cc1OC [Example 203, 1-Ethyl-4-fluoro-5-(2-methoxy-4-(((R)-1,1,1-trifluoropropan-2-yl)amino)phenyl)-N-(((1r,4R)-4-(methylsulfonyl)cyclohexyl)methyl)-1H-pyrazole-3-carboxamide]	7.77	6.89	7.41	105%	–
CCn1nc(C(=O)NC[C@H]2CC[C@H](S(C)(=O)=O)CC2)c(Cl)c1-c1ccc(CCC(F)(F)F)cc1OC(F)F [Example 222, 4-Chloro-5-(2-(difluoromethoxy)-4-(3,3,3-trifluoropropyl)phenyl)-1-ethyl-N-(((1r,4r)-4-(methylsulfonyl)cyclohexyl)methyl)-1H-pyrazole-3-carboxamide]	9.12	–	–	–	RORγt (FL) Reporter Assay A or B, % inhibition (full-length human RORγt; 3 μM compound concentration (footnote *)): 101* %; pIC50 (full-length human RORγt; HEK293T cells, read-out: RORγt (FL) Reporter Assay A or B, IC50): 8.21; pIC50 [2]: 7.96
CCn1nc(C(=O)NC[C@H]2CC[C@H](S(C)(=O)=O)CC2)c(C)c1-c1ccc(CC(C)(C)C(F)(F)F)cc1OC [Example 227, 1-Ethyl-5-(2-methoxy-4-(3,3,3-trifluoro-2,2-dimethylpropyl)phenyl)-4-methyl-N-(((1r,4r)-4-(methylsulfonyl)cyclohexyl)methyl)-1H-pyrazole-3-carboxamide]	8.96	8.05	7.85	–	inhibition at 0.67 µM (full-length human RORγt; [5]): 92%
CC(=O)Nc1nc(C)c(S(=O)(=O)Nc2ccc(C(O)(C(F)(F)F)C(F)(F)F)cc2)s1 [SR1001]	–	–	–	–	Th17-dependent learned helplessness (RORγT): reduced Th17-dependent learned helplessness
